These results are taken from ChEMBL document CHEMBL1152465, “Comparative evaluation of the inhibitory activities of a series of pyrimidinedione congeners that inhibit human immunodeficiency virus types 1 and 2” (Antimicrob Agents Chemother, 2008).

Series [1] relates to Human immunodeficiency virus 1. As to the kind of experiment: Antiviral activity against HIV1 infected in human CEM-SS cells assessed as inhibition of viral replication and virus-induced cytopathic effect by dose-response curve analysis. It is filed as functional. Particulars: Human immunodeficiency virus 1, CEM-SS.
Series [2] is described as follows: Cytotoxicity against human HeLa cells expressing CD4-LTR by XTT assay. It is filed as cell-based. Conditions: read-out: TC50 (the source's name). (In general: Formazan colour is commonly taken as a measure of viable cells.)
Series [3] deals with Human immunodeficiency virus type 1 reverse transcriptase (Human immunodeficiency virus 1, UniProt Q72547). As to the kind of experiment: Inhibition of wild type HIV1 reverse transcriptase assessed as 32P-labeled GMP incorporation into nascent DNA strand.
For series [4], the system named is Human immunodeficiency virus 2. As to the kind of experiment: Antiviral activity against HIV2 assessed as inhibition of viral single round replication at early time point. It is filed as functional, organism-based.
Series [5] in a line: Therapeutic index, ratio of TC50 human HeLa cells expressing CD4-LTR to EC50 for HIV1 entry inhibition in human HeLa cells expressing CD4-LTR. The format is cell-based. Conditions: read-out: TI.
Series [6] has as its system Human immunodeficiency virus 2. As to the kind of experiment: Inhibition of HIV2 reverse transcriptase assessed as 32P-labeled GMP incorporation into nascent DNA strand at highest concentration.
In series [7] the target is Human immunodeficiency virus type 1 reverse transcriptase (Human immunodeficiency virus 1, UniProt Q72547, K103N). The experiment in a line: Inhibition of HIV1 reverse transcriptase K103N mutant assessed as 32P-labeled GMP incorporation into nascent DNA strand.
The subject of series [8] is Human immunodeficiency virus 2. As to the kind of experiment: Inhibition of HIV2 reverse transcriptase.
Series [9] has as its system Human immunodeficiency virus 2. The experiment in a line: Antiviral activity against HIV2 assessed as inhibition of viral replication treated at time points after viral entry into host cells. It is filed as functional, organism-based.
Series [10] relates to Human immunodeficiency virus 2. The experiment in a line: Antiviral activity against HIV2 ROD infected in human CEM-SS cells assessed as inhibition of virus-induced cytopathic effect by XTT assay. It is filed as functional, organism-based, ISOLATE ROD. Conditions: Human immunodeficiency virus 2, ISOLATE ROD, CEM-SS; read-out: EC50. A general note: Cytopathic effects are the visible damage that an infection or toxin causes in cultured cells.

Series [11] has as its system Human immunodeficiency virus 1. As to the kind of experiment: Antiviral activity against HIV1 RF infected in human CEM-SS cells assessed as inhibition of virus-induced cytopathic effect by XTT assay. Particulars: Human immunodeficiency virus 1, RF. The format is functional, organism-based.
Series [12] in a line: Therapeutic index, ratio of TC50 for human CEM-SS cells to EC50 for HIV2 ROD infected in human CEM-SS cells. The format is cell-based. Particulars: CEM-SS cells, read-out: TI.
A short description of series [13]: Cytotoxicity against human CEM-SS cells by XTT assay. It is filed as cell-based. Particulars: read-out: TC50 (the source's name).
Series [14] can be described thus: Therapeutic index, ratio of TC50 for human CEM-SS cells to EC50 for HIV1 RF infected in human CEM-SS cells. The format is cell-based. Conditions: read-out: TI.
Series [15] has as its system Human immunodeficiency virus 1. As to the kind of experiment: Antiviral activity against HIV1 infected in human HeLa cells expressing CD4-LTR assessed as inhibition of viral entry-related beta galactosidase expression treated for 2 hrs followed by drug wash out measured after 48 hrs by MAGI assay. The format is functional, organism-based. Particulars: Human immunodeficiency virus 1, HeLa.

The source made the active and inactive calls. The rule behind the calls is not given here. Where only a bound is given, the exact number is not on record here.

The EC99 is the concentration needed for an effect of 99%. A word on the IC50: it is the concentration that gives 50% inhibition. In general, EC50 refers to the concentration needed to bring the measured effect to its halfway point. Regarding `CCc1c(Oc2cc(C)cc(C)c2)n(CCC2C=CCC2)c(=O)[nH]c1=O` (stereo not given), the EC99 in [1] is 1 µM. The figures for the CC50 in series [2] and in series [13] were 1110 µM and 1100 µM, respectively. Also, the IC50 in series [3] worked out at 0.21 µM; in series [7], 1.96 µM. Further, in series [4], the result was Active. The results for the selectivity ratio in series [5], in [12] and in series [14] were 17600, more than 1650 and 570000, respectively. Also, the outcome in [6], in series [8] and in series [9] was inactive. For the same compound, the figures for the 50% effective concentration (EC50) in [10], in [11] and in series [15] were 0.7 µM, 0.0019 µM and 0.06 µM, respectively.
As for `CCc1c(C(=O)c2cc(C)cc(C)c2)n(CCC2=CCCC2)c(=O)[nH]c1=O`, the EC99 in series [1] came out at 1 µM. Besides, the CC50 in series [2] and in [13] was 1100 µM in each case. In addition, the results for the IC50 in [3] and in series [7] were 2 µM and more than 273 µM, respectively. Also, the outcome in [4] was Active. Also, the values for the selectivity ratio in [5], in series [12] and in series [14] were 421, more than 58.6 and 20100, respectively. Also, the outcome in [6], in series [8] and in series [9] was inactive. The results for the concentration for a half-maximal effect (EC50) in series [10], in series [11] and in series [15] were 18.6 µM, 0.055 µM and 2.6 µM, respectively.
For `Cc1cc(C)cc(C(=O)c2c(C)c(=O)[nH]c(=O)n2CC2CC=CC2)c1`, the concentration for an effect of 99% (EC99) in series [1] amounted to 1 µM. In addition, the CC50 in series [2] and in series [13] was 81.9 µM each time. The IC50 in [3] is 12.7 µM; in [7] it was more than 295 µM. For the same compound, the outcome in [4] was Active. For the same compound, the results for the selectivity ratio in series [5], in [12] and in series [14] were 121, 2.8 and 14, respectively. Moreover, the outcome in series [6], in series [8] and in series [9] was inactive. Also, the figures for the concentration for a half-maximal effect (EC50) in series [10], in series [11] and in series [15] were 29.6 µM, 5.91 µM and 0.68 µM, respectively.
As for `CCc1c(Sc2cc(C)cc(C)c2)n(CC2CC=CC2)c(=O)[nH]c1=O`, the EC99 in [1] was found to be 1 µM. The figures for the CC50 in series [2] and in series [13] were 38.9 µM and 18.3 µM, respectively. In addition, the IC50 is 0.21 µM in series [3] and 2.4 µM in series [7]. In addition, the outcome in [4] was Active. The selectivity ratio was found to be 148 in [5], 38.2 in series [12] and 9060 in [14]. In addition, the outcome in series [6], in series [8] and in [9] was inactive. Moreover, the EC50 was determined as 0.5 µM in [10], 0.0066 µM in [11] and 0.26 µM in [15].
For the compound `Cc1cc(C)cc(Sc2c(C(C)C)c(=O)[nH]c(=O)n2Cc2ccccc2)c1`, the 99% effect concentration (EC99) in [1] is 1 µM. In addition, the CC50 in series [2] and in series [13] was 192 µM in each case. For the same compound, the IC50 in series [3] is 0.137 µM; in [7], 1.66 µM. The result in series [4] was Active. Further, the values for the selectivity ratio in series [5], in series [12] and in series [14] were 2340, 1220 and 165000, respectively. The result in series [6], in series [8] and in series [9] was inactive. In addition, the EC50 in series [10] was 0.2 µM; in [11], 0.0012 µM; in [15] it was 0.08 µM.
As to `CCc1c(Sc2cc(C)cc(C)c2)n(CCC2C=CCC2)c(=O)[nH]c1=O` (stereo not given), the EC99 in [1] came out at 1 µM. For the same compound, the CC50 was 6.25 µM in series [2] and 5.7 µM in series [13]. In addition, the IC50 in series [3] was 0.128 µM; in series [7] it was more than 270 µM. The outcome in series [4] was Active. Also, the selectivity ratio was determined as 192 in series [5], 10 in [12] and 641 in series [14]. Further, the result in series [6], in [8] and in series [9] was inactive. In addition, the half-maximal effective concentration (EC50) in series [10] was 0.6 µM; in [11] it was 0.01 µM; in [15], 0.03 µM.
With `CCc1c(C(=O)c2cc(C)cc(C)c2)n(CC2CCCC2)c(=O)[nH]c1=O`, the concentration for an effect of 99% (EC99) in [1] was 1 µM. For the same compound, the CC50 in series [2] and in series [13] was 253 µM in each case. Moreover, the 50% inhibitory concentration (IC50) in series [3] came to 0.169 µM; in [7], 6.9 µM. In addition, the outcome in series [4] was Active. Also, the selectivity ratio in [5] was determined as 996; in [12], 299; in series [14] it was 74700. The outcome in [6], in [8] and in [9] was inactive. In addition, the concentration giving a half-maximal response (EC50) came to 0.8 µM in series [10], 0.0034 µM in series [11] and 0.25 µM in series [15].
For `CCc1c(C(=O)c2ccccc2)n(CC2CC=CC2)c(=O)[nH]c1=O`, in series [1], the 99% effect concentration (EC99) was determined as 1 µM. The CC50 in [2] and in [13] was 88.5 µM throughout. Besides, the half-maximal inhibitory concentration (IC50) in series [3] is 0.256 µM; in series [7], 134 µM. Further, the outcome in series [4] was Active. Also, the figures for the selectivity ratio in [5], in series [12] and in [14] were 30, 2.9 and 1440, respectively. The result in series [6], in series [8] and in [9] was inactive. In addition, the concentration for a half-maximal effect (EC50) in [10] turned out to be 30.9 µM; in [11], 0.0617 µM; in series [15] it was 2.93 µM.
`CCc1c(Sc2cc(C)cc(C)c2)n(CCC2CC=CC2)c(=O)[nH]c1=O`: the 99% effect concentration (EC99) in series [1] turned out to be 1 µM. Further, the CC50 is 135 µM in series [2] and 19.5 µM in series [13]. The results for the IC50 in series [3] and in [7] were 0.179 µM and 141 µM, respectively. Besides, the outcome in [4] was Active. The selectivity ratio in [5] worked out at 1460; in series [12], 11.4; in [14] it was 1030. Moreover, the outcome in [6], in series [8] and in series [9] was inactive. In addition, the 50% effective concentration (EC50) in series [10] was determined as 1.7 µM; in series [11], 0.0241 µM; in series [15], 0.09 µM.
Regarding `CCc1c(C(=O)c2cc(C)cc(C)c2)n(CC2CCCCC2)c(=O)[nH]c1=O`, the EC99 in series [1] amounted to 1 µM. The CC50 in series [2] stood at 1090 µM; in series [13], 1100 µM. The IC50 in [3] is 0.173 µM; in [7], more than 271 µM. Moreover, the outcome in [4] was Active. In addition, the selectivity ratio in series [5] was 20200; in series [12] it was more than 362; in series [14] it was 20300. Also, the outcome in series [6], in series [8] and in [9] was inactive. Also, the values for the EC50 in series [10], in [11] and in series [15] were 3 µM, 0.054 µM and 0.05 µM, respectively.
Turning to `CC(C)c1c(C(=O)c2ccccc2)n(CC2CC=CC2)c(=O)[nH]c1=O`, the EC99 in series [1] was found to be 1 µM. Further, the CC50 in series [2] and in series [13] was 1180 µM each time. In addition, the 50% inhibitory concentration (IC50) in series [3] is 0.18 µM; in series [7], more than 295 µM. In addition, in series [4], the result was Active. Also, the selectivity ratio in [5] is 1480; in series [12] it was more than 65.5; in series [14], 200000. Besides, the result in series [6], in series [8] and in series [9] was inactive. For the same compound, the EC50 in series [10] came to 18.1 µM; in series [11], 0.0059 µM; in series [15], 0.8 µM.
As to `CCc1c(Oc2cc(C)cc(C)c2)n(CCC2=CCCC2)c(=O)[nH]c1=O`, the concentration for an effect of 99% (EC99) in [1] amounted to 1 µM. Also, the CC50 in [2] is 1110 µM; in [13] it was 1100 µM. In addition, the concentration for half-maximal inhibition (IC50) in series [3] is 10.3 µM; in [7], 247 µM. Besides, in series [4], the result was Active. For the same compound, the selectivity ratio in series [5] was 424; in series [12], more than 39.7; in series [14], 2600. Besides, the outcome in [6], in [8] and in series [9] was inactive. The EC50 turned out to be 28.2 µM in series [10], 0.42 µM in [11] and 2.62 µM in series [15].
